Key:
LPA3R = target: T1, LPA3R (Homo sapiens, UniProt Q9UBY5); experiment: LPA3R antagonist activity (Table 1, calcium flux FLIPR); format: cell-based
T1 sequence (Q9UBY5 1-353): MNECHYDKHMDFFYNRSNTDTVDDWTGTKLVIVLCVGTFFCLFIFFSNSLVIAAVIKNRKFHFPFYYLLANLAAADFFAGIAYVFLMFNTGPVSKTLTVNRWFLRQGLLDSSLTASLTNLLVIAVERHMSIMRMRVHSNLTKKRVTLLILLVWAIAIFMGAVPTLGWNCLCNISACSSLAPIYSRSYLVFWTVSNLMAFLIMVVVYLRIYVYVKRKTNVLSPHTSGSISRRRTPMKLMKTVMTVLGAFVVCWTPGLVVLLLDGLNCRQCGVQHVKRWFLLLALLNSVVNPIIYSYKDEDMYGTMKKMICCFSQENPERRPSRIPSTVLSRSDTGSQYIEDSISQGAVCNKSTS
Procedure: (§1) Calcium Flux Assay Using Fluorometric Imaging Plate Reader (FLIPR)
(§2) After incubation, both the cell and “assay” plates were brought to the FLIPR and 20 μL of the diluted compounds were transferred to the cell plates by the FLIPR. Compound addition was monitored by FLIPR to detect any agonist activity of the compounds. Plates were then incubated for 30 minutes at room temperature protected from light. After the incubation, plates were returned to the FLIPR and 20 μL of 4.5× concentrated agonist was added to the cell plates. During the assay, fluorescence readings were taken simultaneously from all 384 wells of the cell plate every 1.5 seconds. Five readings were taken to establish a stable baseline, then 20 μL of sample was rapidly (30 μL/sec) and simultaneously added to each well of the cell plate. The fluorescence was continuously monitored before, during and after sample addition for a total elapsed time of 100 seconds. Responses (increase in peak fluorescence) in each well following agonist addition was determined. The initial fluorescence reading from each well, prior to ligand stimulation, was used as zero baseline value for the data from that well. The responses were expressed as % inhibition of the buffer control.

[1] = target: human recombinant LPA1 Lysophospholipid receptor (Homo sapiens, UniProt Q92633); experiment: Calcium flux assay using FLIPR, LPA1R antagonist activity; format: cell-based; details: for IC50: ChemiScreen calcium-optimized stable cell line, FLIPR calcium flux, antagonist mode
Chain of human recombinant LPA1 Lysophospholipid receptor (Q92633 whole entry): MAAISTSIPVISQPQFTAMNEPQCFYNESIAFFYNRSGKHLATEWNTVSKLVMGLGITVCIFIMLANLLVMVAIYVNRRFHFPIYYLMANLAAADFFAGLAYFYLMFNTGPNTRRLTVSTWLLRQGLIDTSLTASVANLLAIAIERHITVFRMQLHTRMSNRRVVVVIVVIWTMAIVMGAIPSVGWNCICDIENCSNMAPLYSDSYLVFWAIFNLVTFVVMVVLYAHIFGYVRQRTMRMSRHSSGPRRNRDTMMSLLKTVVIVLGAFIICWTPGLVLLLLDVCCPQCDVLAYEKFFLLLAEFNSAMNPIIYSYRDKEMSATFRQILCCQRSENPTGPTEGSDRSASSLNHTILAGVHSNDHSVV
Procedure: as §1
Cell Culture Conditions: The ChemiScreen Calcium-optimized stable cell line containing the human recombinant LPA1 Lysophospholipid receptor was purchased from Chemicon International, Inc./Millipore. The cells were cultured in DMEM-high glucose supplemented with 10% fetal bovine serum, 2 mM glutamine, 100 U/mL penicillin/100 μg/mL streptomycin, 1× non-essential amino acids, 10 mM HEPES and 0.25 mg/mL Geneticin. Cells were harvested with trypsin-EDTA and counted using ViaCount reagent. The cell suspension volume was adjusted to 2.0×10^5 cells/mL with complete growth media. Aliquots of 50 μL were dispensed into 384 well black/clear tissue culture treated plates (BD) and the microplates were placed in a 37° C. incubator overnight. The following day plates were used in the assay.
Dye Loading and Assay: Loading Buffer (FLIPR Calcium-4, Molecular Devices) was prepared by dissolving the contents of one bottle into 100 mL Hank's Balanced Salt Solution containing 20 mM HEPES and 2.5 mM probenecid. Plates were loaded onto Biotek plate washer and growth media was removed and replaced with 20 µL of Hank's Balanced Salt Solution containing 20 mM HEPES and 2.5 mM probenecid, followed by 25 μL of Loading Buffer. The plates were then incubated for 30 minutes at 37° C.
During the incubation, test compounds were prepared by adding 90 μL of HBSS/20 mM HEPES/0.1% BSA buffer to 2 μL of serially diluted compounds. To prepare serial dilutions, 10 mM stocks of compounds were prepared in 100% DMSO. The compound dilution plate was set up as follows: well #1 received 29 μL of stock compound and 31 μL DMSO; wells 2-10 received 40 μL of DMSO; mixed and transferred 20 μL of solution from well #1 into well #2; continued with 1:3 serial dilutions out 10 steps; transferred 2 μL of diluted compound into duplicate wells of 384 well “assay plate” and then added the 90 μL of buffer.
as §2

Cn1ncc(-c2ccc(-c3ccc(C4(C(=O)O)CC4)cc3)cc2)c1NC(=O)NCc1ccccc1 [Example 24, 1-{4′-[5-(3-Benzyl-ureido)-1-methyl-1H-pyrazol-4-yl]-biphenyl-4-yl}-cyclopropanecarboxylic acid]
IC50 (LPA3R): > 30 µM | inhibition at 10 µM ([1]; @ 10 μM): 82.8% | IC50 [1]: 0.58 µM

COc1ccc(-c2cnn(C)c2NC(=O)O[C@H](C)c2ccccc2)cc1 [Example 8, [4-(4-Methoxy-phenyl)-2-methyl-2H-pyrazol-3-yl]-carbamic acid (R)-1-phenyl-ethyl ester]
IC50 (LPA3R): > 30 µM | IC50 [1]: > 30 µM

From patent US20150259295A1, “SUBSTITUTED PYRAZOLE COMPOUNDS AS LPAR ANTAGONISTS” (Hoffmann-La Roche Inc., priority 2012, published 2015)
